According to publication PMC10439952, “JT002, a small molecule inhibitor of the NLRP3 inflammasome for the treatment of autoinflammatory disorders” (Scientific Reports, 2023):
“Also recorded” adds a separate entry of the source.

Assays:
[1] = system: intracellular caspase-1 activity; test: Intracellular caspase-1 activity in human PBMCs stimulated with LPS + nigericin (Caspase-Glo); assay type: cell-based; details: Human PBMC, read-out: Geo Av IC50, Caspase-1
Protocol: Cell viability was determined by addition of an equal volume of CellTiter-Glo® 2.0 reagent (Promega) to the remaining cells/supernatant in each well. Intracellular Caspase-1 activity was measured using the Caspase-Glo® assay (Promega) according to the manufacturer’s instructions. The biochemical capsase-1 assay was conducted at Reaction Biology Corporation (Malvern, USA). Human IL-1β, IL-1α, and TNFα and mouse IL-1β were measured in cell culture supernatants using homogeneous time resolved fluorescence assay kits (HTRF, Cisbio, Codolet, France). Human IL-18 was measured in cell culture supernatants using an ELISA kit (R&D Systems, Minneapolis, MN, USA). Plasma IL-1β concentrations were determined by Quantikine® ELISA (R&D Systems, Minneapolis, MN).
4H). MS: m/z 433.1 (M+H+).
Inflammasome activation.PBMCs (iXCells Biotechnologies, San Diego, USA) were thawed the day before the assay and seeded in complete medium (RPMI 1640 medium with GlutaMAX, supplemented with an additional 2.5 g/L D-glucose, 10% Fet al Bovine Serum, 100 mM Sodium Pyruvate, 1% Penicillin/Streptomycin, 10 mM HEPES and 0.05 mM β -mercaptoethanol) in polystyrene V-bottom 96-well plates at 5x10^4 cells per well and incubated overnight at 37°C with 5% CO 2. The next day, PBMC media was r eplaced with serum-fr ee media p rior t o the assay. […]

[2] = Pharmacokinetics in male Sprague–Dawley rats after i.v. and p.o. administration; assay type: in vivo
Protocol: The pharmacokinetics (PK) of JT002 were assessed in male Sprague–Dawley rats and male Beagle dogs after intravenous (i.v.) and oral (p.o.) administration (Table 2). […] In dogs, a maximum drug plasma concentration (Cmax) of 4.0 µg/mL (9 µM) was reached 1 h after a single 1 mg oral dose. Dose-adjusted exposures (dose-adjusted AUC) from oral administration were close to identical between rat and dog (11.8 versus 11.6) (Table 2).

[3] = target: NLRP3 inflammasome (Mus musculus, UniProt Q8R4B8); test: In vivo target engagement: ex vivo LPS + ATP stimulated IL-1β production in blood of orally dosed mice; details: single oral dose 25 mg/kg
Sequence of NLRP3 inflammasome (Q8R4B8 whole entry): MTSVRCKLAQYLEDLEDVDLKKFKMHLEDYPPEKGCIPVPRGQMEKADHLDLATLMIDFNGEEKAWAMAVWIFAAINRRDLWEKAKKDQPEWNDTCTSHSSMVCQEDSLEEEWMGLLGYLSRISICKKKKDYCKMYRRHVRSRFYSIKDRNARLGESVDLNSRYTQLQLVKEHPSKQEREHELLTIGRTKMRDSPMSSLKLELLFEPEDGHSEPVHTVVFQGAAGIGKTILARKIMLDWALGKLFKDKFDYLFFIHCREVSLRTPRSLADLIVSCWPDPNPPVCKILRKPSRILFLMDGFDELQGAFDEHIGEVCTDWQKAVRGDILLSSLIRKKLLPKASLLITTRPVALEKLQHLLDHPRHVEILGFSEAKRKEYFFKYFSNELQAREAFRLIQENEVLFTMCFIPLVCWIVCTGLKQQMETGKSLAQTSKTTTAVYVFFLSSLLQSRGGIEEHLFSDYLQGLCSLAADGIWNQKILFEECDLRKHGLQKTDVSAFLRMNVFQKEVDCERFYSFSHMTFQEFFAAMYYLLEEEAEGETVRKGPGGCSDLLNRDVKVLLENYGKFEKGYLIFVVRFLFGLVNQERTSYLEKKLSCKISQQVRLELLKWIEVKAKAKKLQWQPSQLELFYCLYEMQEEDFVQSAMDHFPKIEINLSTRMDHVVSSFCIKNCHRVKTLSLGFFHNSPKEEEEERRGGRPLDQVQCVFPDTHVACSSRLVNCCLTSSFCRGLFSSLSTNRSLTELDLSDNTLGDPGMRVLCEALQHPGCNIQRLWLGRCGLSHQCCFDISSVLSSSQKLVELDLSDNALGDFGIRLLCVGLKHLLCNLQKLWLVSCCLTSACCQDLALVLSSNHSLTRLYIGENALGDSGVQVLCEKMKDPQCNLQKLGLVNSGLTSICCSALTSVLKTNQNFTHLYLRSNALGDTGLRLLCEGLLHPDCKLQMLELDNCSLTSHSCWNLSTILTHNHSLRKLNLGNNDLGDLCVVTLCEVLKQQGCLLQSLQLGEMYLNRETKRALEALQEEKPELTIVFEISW
Protocol: In vivo pharmacodynamics (PD) were evaluated in mice for determination of target engagement as this species is routinely used for assessment of preclinical efficacy. Treatment of fresh, whole blood with LPS plus ATP results in the NLRP3-dependent release of IL-1β, thus providing a robust method for tracking target engagement of NLRP3 inflammasome inhibitors in the circulation after oral dose administration[36],[47]. In vivo target engagement using ex vivo stimulation of blood was evaluated in mice at various times after oral dosing of JT002. For each time point tested, one group of mice received a single oral dose of 25 mg/kg JT002 (n = 8/group) and another group received the vehicle control (n = 8/group). At the time of harvest, blood was collected from each animal and an aliquot removed and processed to plasma for determination of JT002 concentrations. The remaining blood was stimulated ex vivo with LPS plus ATP followed by analysis of IL-1β concentrations (Fig. 3A). […] Consistent with these findings, plasma concentrations of JT002 decreased over time, with mean concentrations of ≥ 4.0 µM through 8 h and a mean concentration of 6 nM at the 24-h sampling (Fig. 3C,D). […]

[4] = Rat, single 5 mg oral dose, sodium salt form
[5] = male, Sprague-Dawley, plasma, iv, Rat, 1 mg/kg
[6] = male, Sprague-Dawley, plasma, po, Rat, 5 mg/kg

IC50 [1]: 8 nM | %F (oral bioavailability) ([2]; Rat, p.o., 5 mg/kg, sodium salt form): 73.2% | maximum plasma concentration [2, 4]: 36 µM | time of maximum plasma concentration [2, 4]: thirty | AUC [2, 5]: 16200 ng·h/mL | Cmax [2, 5]: 10600 ng/mL | half-life [2, 5]: 2.8 h | clearance ([2]; male, Sprague-Dawley, plasma, iv, Rat, i.v., 1 mg/kg, read-out: Clpl (plasma clearance)): 1 mL/min/kg | Vd ([2]; male, Sprague-Dawley, plasma, iv, Rat, i.v., 1 mg/kg, read-out: Vss): 0.2 L/kg | AUC [2, 6]: 59200 ng·h/mL | Cmax [2, 6]: 15600 ng/mL | half-life [2, 6]: 3.4 h | Tmax ([2]; male, Sprague-Dawley, plasma, po, Rat, 5 mg/kg, median): 0.5 h | bioavailability ([2]; male, Sprague-Dawley, rat, plasma, po, 5 mg/kg, p.o., 5 mg/kg, sodium salt form, read-out: %F (oral bioavailability)): 73% | inhibition at 25 mg/kg ([3]; mouse, 4- and 8-h post-dosing): ≥ 97%
SMILES: CO[C@@H]1COc2c(S(=O)(=O)NC(=O)Nc3c4c(cc5c3CCC5)CCC4)cnn2C1 [JT002]
inhibition of ex vivo stimulated IL-1β production ([3]; 24-h post-dosing, 25 mg/kg): no significant inhibition; also recorded: lack of inhibition
